Assay results taken from patent publication US12209071B2, “Triazine derivatives for treating diseases relating to neurotrophins” (AlzeCure Pharma AB, priority 2018, dated 2025).
pEC50: −log10 of the molar value.

How the values were obtained:
TrkA = target: T1, TrkA (Homo sapiens, UniProt P04629); assay: Enzyme Fragment Complementation cell-based assay, TrkA; settings: U2OS-cells over-expressing TrkA; ligand 10 ng/mL; 3 hours incubation
T1 construct: expressed in transfected cells; host or cells: U2OS
Excerpt: (§1) A high throughput cell-based screen has been used to identify positive modulators of TrkA, TrkB and TrkC. The screen involves the use of cell-based assay overexpressing TrkA, TrkB or TrkC. The purpose of the assay is to identify compounds that modulate neurotrophin signalling (Forsell et al 2012). The assay can be used in inhibitor mode using a high concentration of ligand, in modulator mode using an intermediate concentration and in agonist mode using a low concentration of ligand.
(§2) The assay uses Enzyme Fragment Complementation (EFC) technique, which is a proximity-based assay. Briefly, cells used in this assay over-express two fusion proteins, i.e. the receptor, which can be either one of TrkA, TrkB, TrkC, IGF1R or FGFR1, fused to a small peptide of beta-galactosidase and an adaptor protein, i.e. SHC1 (or any other Trk-adaptor protein) fused to the major part of beta-galactosidase. […] The proximity between the small activating peptide on the receptor and the major part of beta-galactosidase on the adaptor protein leads to an active beta-galactosidase enzyme. The activation of the receptor is quantified by measuring the amount of active beta-galactosidase by its conversion of a non-luminescent substrate into a luminescent product.
(§3) U2OS-cells, over-expressing TrkA or TrkB or TrkC, are plated in 96- or 384-well plates and incubated overnight. Alternatively, cryopreserved HEK293-cells expressing IGFR1 or cryopreserved U2OS-cells expressing FGFR1 were plated in 96- or 384-well plates. On the following day, test compound was pre-mixed with ligand (NGF, BDNF, NT-3, IGF-1 or basic fibroblast growth factor (bFGF(FGF-2))) and the ligand-compound mixture is then added to the cells to yield a final ligand concentration of 10 ng/mL. After 3 hours of incubation at room temperature, the incubation is stopped by the addition of a beta-galactosidase substrate mixture containing detergents. The substrate mixture is incubated for 60 minutes at ambient temperature. The luminescence is thereafter read by the use of a plate reader.

TrkB = target: T2, TrkB (Homo sapiens, UniProt Q16620); assay: Enzyme Fragment Complementation cell-based assay, TrkB; settings: U2OS-cells over-expressing TrkB; ligand 10 ng/mL; 3 hours incubation
T2 construct: expressed in transfected cells; host or cells: U2OS
Excerpt: as §1, §2, §3

TrkC = target: T3, TrkC (Homo sapiens, UniProt Q16288); assay: Enzyme Fragment Complementation cell-based assay, TrkC; settings: U2OS-cells over-expressing TrkC; ligand 10 ng/mL; 3 hours incubation
T3 construct: expressed in transfected cells; host or cells: U2OS
Excerpt: as §1, §2, §3

T2 sequence (Q16620 32-822): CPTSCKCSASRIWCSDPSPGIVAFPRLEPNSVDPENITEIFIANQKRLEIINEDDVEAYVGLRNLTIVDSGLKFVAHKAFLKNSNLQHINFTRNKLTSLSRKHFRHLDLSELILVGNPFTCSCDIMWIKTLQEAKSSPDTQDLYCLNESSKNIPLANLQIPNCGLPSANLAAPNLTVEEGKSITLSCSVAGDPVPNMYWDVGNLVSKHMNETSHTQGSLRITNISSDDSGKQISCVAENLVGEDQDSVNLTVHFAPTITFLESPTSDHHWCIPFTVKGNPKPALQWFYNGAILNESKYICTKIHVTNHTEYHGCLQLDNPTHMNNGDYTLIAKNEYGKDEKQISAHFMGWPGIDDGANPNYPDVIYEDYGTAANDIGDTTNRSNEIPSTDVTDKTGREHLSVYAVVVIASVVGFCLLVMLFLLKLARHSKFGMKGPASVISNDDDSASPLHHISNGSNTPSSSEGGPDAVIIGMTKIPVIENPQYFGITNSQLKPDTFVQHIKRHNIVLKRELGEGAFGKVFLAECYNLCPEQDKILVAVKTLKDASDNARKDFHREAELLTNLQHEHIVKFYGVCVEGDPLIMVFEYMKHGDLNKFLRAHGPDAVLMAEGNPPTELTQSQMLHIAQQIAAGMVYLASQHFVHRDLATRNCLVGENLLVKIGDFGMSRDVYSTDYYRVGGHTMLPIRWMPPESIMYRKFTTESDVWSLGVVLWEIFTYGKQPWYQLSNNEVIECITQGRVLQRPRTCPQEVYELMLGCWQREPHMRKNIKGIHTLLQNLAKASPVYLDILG
T3 sequence (Q16288 32-839): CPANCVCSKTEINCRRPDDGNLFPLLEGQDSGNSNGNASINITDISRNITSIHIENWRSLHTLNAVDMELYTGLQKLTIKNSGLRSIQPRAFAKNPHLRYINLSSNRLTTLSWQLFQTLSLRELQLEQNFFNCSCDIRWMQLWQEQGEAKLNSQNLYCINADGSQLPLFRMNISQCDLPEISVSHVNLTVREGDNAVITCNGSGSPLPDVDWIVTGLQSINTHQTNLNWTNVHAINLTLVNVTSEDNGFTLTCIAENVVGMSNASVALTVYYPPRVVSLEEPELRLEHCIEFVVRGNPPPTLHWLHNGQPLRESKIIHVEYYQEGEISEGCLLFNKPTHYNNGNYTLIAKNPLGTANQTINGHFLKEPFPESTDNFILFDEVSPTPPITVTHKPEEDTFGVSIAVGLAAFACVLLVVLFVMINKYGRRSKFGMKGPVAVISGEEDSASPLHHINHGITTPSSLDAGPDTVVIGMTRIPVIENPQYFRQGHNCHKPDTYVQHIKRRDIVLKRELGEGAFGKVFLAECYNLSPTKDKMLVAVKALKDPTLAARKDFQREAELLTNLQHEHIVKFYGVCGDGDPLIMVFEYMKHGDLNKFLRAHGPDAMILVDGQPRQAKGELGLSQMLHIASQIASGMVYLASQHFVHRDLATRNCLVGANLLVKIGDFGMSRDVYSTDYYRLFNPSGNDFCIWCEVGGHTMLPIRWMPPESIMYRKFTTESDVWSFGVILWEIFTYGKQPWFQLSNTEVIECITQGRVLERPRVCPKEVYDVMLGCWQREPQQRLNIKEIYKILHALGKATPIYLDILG
T1 sequence (P04629 33-796): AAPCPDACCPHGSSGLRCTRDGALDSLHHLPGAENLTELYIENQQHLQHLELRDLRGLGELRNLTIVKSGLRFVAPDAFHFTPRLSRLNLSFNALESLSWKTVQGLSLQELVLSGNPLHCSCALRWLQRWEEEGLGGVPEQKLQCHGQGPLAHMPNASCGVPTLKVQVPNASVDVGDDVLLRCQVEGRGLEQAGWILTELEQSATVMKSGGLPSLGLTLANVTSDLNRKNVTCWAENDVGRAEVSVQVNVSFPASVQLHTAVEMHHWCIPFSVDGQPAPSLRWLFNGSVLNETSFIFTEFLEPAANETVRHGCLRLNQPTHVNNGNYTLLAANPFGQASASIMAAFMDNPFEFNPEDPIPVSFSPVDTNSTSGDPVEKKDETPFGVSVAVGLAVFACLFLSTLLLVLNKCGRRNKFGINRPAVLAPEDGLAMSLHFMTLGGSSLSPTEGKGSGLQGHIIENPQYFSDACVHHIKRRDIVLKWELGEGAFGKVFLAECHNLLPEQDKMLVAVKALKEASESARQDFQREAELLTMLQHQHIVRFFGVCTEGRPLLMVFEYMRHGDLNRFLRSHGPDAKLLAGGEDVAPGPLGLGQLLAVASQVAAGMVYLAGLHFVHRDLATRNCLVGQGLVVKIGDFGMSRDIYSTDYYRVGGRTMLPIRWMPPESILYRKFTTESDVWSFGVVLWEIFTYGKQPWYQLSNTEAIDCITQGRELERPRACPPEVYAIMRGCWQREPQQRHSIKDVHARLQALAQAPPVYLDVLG

pEC50 (TrkA)	pEC50 (TrkB)	pEC50 (TrkC)	SMILES
6.60	6.68	6.85	Cc1ccc(-n2c(=O)[nH]c(=O)n(-c3ccc(Oc4ccccc4)c(C)c3)c2=O)cc1 [Example 41, 1-(3-methyl-4-phenoxyphenyl)-3-(4-methylphenyl)-1,3,5-triazinane-2,4,6-trione]
6.66	6.64	6.74	COCCOc1cc(-n2c(=O)[nH]c(=O)n(-c3cccc(Cl)c3)c2=O)ccc1Oc1ccccc1 [Example 58, 1-(3-chlorophenyl)-3-[3-(2-methoxyethoxy)-4-phenoxyphenyl]-1,3,5-triazinane-2,4,6-trione]
5.96	5.82	5.70	CC(C)Oc1cc(-n2c(=O)[nH]c(=O)n(C)c2=O)ccc1Oc1ccccc1 [Example 26, 1-methyl-3-[4-phenoxy-3-(propan-2-yloxy)phenyl]-1,3,5-triazinane-2,4,6-trione]
6.41	6.43	6.29	CCOc1cc(-n2c(=O)[nH]c(=O)n(-c3ccccc3)c2=O)ccc1Oc1ccccc1 [Example 16, 1-(3-ethoxy-4-phenoxyphenyl)-3-phenyl-1,3,5-triazinane-2,4,6-trione]
6.64	6.44	5.96	Cc1cc(-n2c(=O)[nH]c(=O)n(-c3cnn(-c4ccccc4)c3)c2=O)ccc1Oc1ccccc1 [Example 68, 1-(3-methyl-4-phenoxyphenyl)-3-(1-phenyl-1H-pyrazol-4-yl)-1,3,5-triazinane-2,4,6-trione]
6.72	6.10	5.70	Cc1cc(-n2c(=O)[nH]c(=O)n(-c3cccc4[nH]ccc34)c2=O)ccc1Oc1ccccc1 [Example 49, 1-(1H-indol-4-yl)-3-(3-methyl-4-phenoxyphenyl)-1,3,5-triazinane-2,4,6-trione]
6.43	6.43	–	COCCOc1cc(-n2c(=O)[nH]c(=O)n(-c3ccc(C)s3)c2=O)ccc1Oc1ccccc1 [Example 66, 1-[3-(2-methoxyethoxy)-4-phenoxyphenyl]-3-(5-methylthiophen-2-yl)-1,3,5-triazinane-2,4,6-trione]
6.32	6.62	–	Cc1cc(-n2c(=O)[nH]c(=O)n(-c3ccc4occc4c3)c2=O)ccc1Oc1ccccc1 [Example 46, 1-(1-benzofuran-5-yl)-3-(3-methyl-4-phenoxyphenyl)-1,3,5-triazinane-2,4,6-trione]

Second part, the compound before the results:

SMILES	pEC50 (TrkA)	pEC50 (TrkB)	pEC50 (TrkC)
O=c1[nH]c(=O)n(-c2ccc(Oc3ccccc3)c(Cl)c2)c(=O)n1-c1ccccc1 [Example 39, 1-(3-chloro-4-phenoxyphenyl)-3-phenyl-1,3,5-triazinane-2,4,6-trione]	5.85	6.17	6.06
CC(C)Oc1cc(-n2c(=O)[nH]c(=O)n(-c3ccccc3)c2=O)ccc1Oc1ccccc1 [Example 27, 1-[4-phenoxy-3-(propan-2-yloxy)phenyl]-3-phenyl-1,3,5-triazinane-2,4,6-trione]	6.44	6.43	6.48
Cn1c(=O)[nH]c(=O)n(-c2ccc(Oc3ccc(Cl)cc3)cc2)c1=O [Example 64, 1-[4-(4-chlorophenoxy)phenyl]-3-methyl-1,3,5-triazinane-2,4,6-trione]	5.36	5.23	5.02
COCCOc1cc(-n2c(=O)[nH]c(=O)n(-c3ccc(C)cc3)c2=O)ccc1Oc1ccccc1 [Example 56, 1-[3-(2-methoxyethoxy)-4-phenoxyphenyl]-3-(4-methylphenyl)-1,3,5-triazinane-2,4,6-trione]	6.54	6.96	6.77
Cn1c(=O)[nH]c(=O)n(-c2ccc(Oc3ccccc3)c(OC3CCOC3)c2)c1=O (stereo not drawn) [Example 22, 1-methyl-3-[3-(oxolan-3-yloxy)-4-phenoxyphenyl]-1,3,5-triazinane-2,4,6-trione]	5.89	5.44	5.52
COCCOc1cc(-n2c(=O)[nH]c(=O)n(-c3cccc(C)c3)c2=O)ccc1Oc1ccccc1 [Example 57, 1-[3-(2-methoxyethoxy)-4-phenoxyphenyl]-3-(3-methylphenyl)-1,3,5-triazinane-2,4,6-trione]	6.74	6.92	7.05
CCOc1cc(-n2c(=O)[nH]c(=O)n(C)c2=O)ccc1Oc1ccccc1 [Example 21, 1-(3-ethoxy-4-phenoxyphenyl)-3-methyl-1,3,5-triazinane-2,4,6-trione]	5.68	5.64	5.92
O=c1[nH]c(=O)n(-c2ccc(Oc3ccccc3)c(OC3CCCC3)c2)c(=O)n1-c1ccccc1 [Example 23, 1-[3-(cyclopentyloxy)-4-phenoxyphenyl]-3-phenyl-1,3,5-triazinane-2,4,6-trione]	6.00	6.04	6.11
Cn1c(=O)[nH]c(=O)n(-c2ccc(Oc3ccccc3)c(Cl)c2)c1=O [Example 65, 1-(3-chloro-4-phenoxyphenyl)-3-methyl-1,3,5-triazinane-2,4,6-trione]	5.35	5.80	6.49
COCCOc1cc(-n2c(=O)[nH]c(=O)n(-c3ccc(Cl)cc3)c2=O)ccc1Oc1ccccc1 [Example 59, 1-(4-chlorophenyl)-3-[3-(2-methoxyethoxy)-4-phenoxyphenyl]-1,3,5-triazinane-2,4,6-trione]	6.32	6.34	6.48
O=c1[nH]c(=O)n(-c2ccc(Oc3ccccc3)c(OC3CCOC3)c2)c(=O)n1-c1ccccc1 (stereo not drawn) [Example 17, 1-[3-(oxolan-3-yloxy)-4-phenoxyphenyl]-3-phenyl-1,3,5-triazinane-2,4,6-trione]	6.11	6.12	6.32
Cn1c(=O)[nH]c(=O)n(-c2ccc(Oc3ccccc3)c(OCc3ccccc3)c2)c1=O [Example 30, 1-[3-(benzyloxy)-4-phenoxyphenyl]-3-methyl-1,3,5-triazinane-2,4,6-trione]	5.96	5.12	6.05
O=c1[nH]c(=O)n(-c2ccc(Nc3ccccc3)cc2)c(=O)n1-c1ccccc1 [Example 20, 1-phenyl-3-[4-(phenylamino)phenyl]-1,3,5-triazinane-2,4,6-trione]	5.16	5.05	5.49
Cc1cn(-c2ccccc2)c2ccc(-n3c(=O)[nH]c(=O)n(C)c3=O)cc12 [Example 37, 1-methyl-3-(3-methyl-1-phenyl-1H-indol-5-yl)-1,3,5-triazinane-2,4,6-trione]	6.41	–	7.40
Cc1cc(-n2c(=O)[nH]c(=O)n(C)c2=O)ccc1Oc1ccccc1 [Example 55, 1-methyl-3-(3-methyl-4-phenoxyphenyl)-1,3,5-triazinane-2,4,6-trione]	6.41	5.85	–
Cc1ccc(-n2c(=O)[nH]c(=O)n(-c3cnc(Oc4ccccc4)c(C)c3)c2=O)cc1 [Example 78, 1-(5-Methyl-6-phenoxypyridin-3-yl)-3-(p-tolyl)-1,3,5-triazinane-2,4,6-trione]	5.45	5.42	–
O=c1[nH]c(=O)n(-c2ccc(Oc3ccccc3)c(CO)c2)c(=O)n1-c1ccccc1 [Example 75, 1-[3-(hydroxymethyl)-4-phenoxyphenyl]-3-phenyl-1,3,5-triazinane-2,4,6-trione]	5.93	5.74	–
